# Read-outs that look alike come from different tables or passages of the source.
# Key:
# E coli wild type = assay: MIC by broth microdilution, wild type E coli; type: cell-based; conditions: for MIC: Escherichia coli
# [1] = tested on: E coli carrying specific resistance determinants; assay: MIC by broth microdilution, E coli carrying specific resistance determinants; type: cell-based; conditions: for MIC APH(3)-VI / MIC APH(3′)-I / MIC APH(3′)-II / MIC APH(3′)-III: Table 3 (Example 1); for MIC: Escherichia coli
# [2] = tested on: wild type bacterial ribosomes; assay: in-vitro translation assay, bacterial ribosomes; type: biochemical; conditions: bacterial ribosome, read-out: IC50 Bac
# Description: (§1) The antiribosomal activity of these compounds was investigated with cell-free translation assays using both wild type bacterial ribosomes and hybrid ribosomes carrying eukaryotic decoding A sites enabling the prediction of selectivity.
# [3] = tested on: cytosolic ribosome (human chimeric); type: biochemical; conditions: cytosolic, read-out: IC50 Cyt
# Description: as §1
# [4] = tested on: mitochondrial ribosome (human chimeric); type: biochemical; conditions: mitochondrial, read-out: IC50 Mit
# Description: as §1
# MRSA = assay: MIC by broth microdilution, MRSA isolates; type: cell-based; conditions: Table 1 (Example 2)
# P aeruginosa = assay: MIC by broth microdilution, P aeruginosa isolates; type: cell-based, Pseudomonas aeruginosa; conditions: Table 1 (Example 2); for MIC50: Pseudomonas aeruginosa
# M. smegmatis SZ380 = assay: MIC by broth microdilution, M. smegmatis
# [5] = clinical isolate AG160 WT, Table 2 (Example 4), read-out: MIC AG160 E. coli WT
# [6] = engineered strain pH430 WT, Table 2 (Example 4), read-out: MIC pH430 E. coli WT
# [7] = read-out: MIC AG037 E. coli APH(3′)-III
# [8] = ATCC25922, strain AG212 E. coli (ATCC25922), read-out: MIC AG212 E. coli
# [9] = read-out: MIC WT, WT, Table 3 (Example 2)
smiles,measurement,setting,value
NC[C@H]1O[C@H](O[C@H]2[C@H](O[C@@H]3O[C@H](CO)[C@@H](O)[C@H]3O)[C@@H](O)[C@H](N)C[C@@H]2N)[C@H](N)C[C@@H]1O [Compound 047],MIC WT,"E coli wild type; WT, Table 3 (Example 1)",2 to 4 µg/mL
same,MIC APH(3)-VI,[1],4 µg/mL
same,MIC APH(3′)-I,[1],>64 µg/mL
same,MIC APH(3′)-II,[1],2 to 4 µg/mL
same,MIC APH(3′)-III,[1],>64 µg/mL
same,IC50,[2]; Table 3 (Example 1),0.1 µM
same,IC50,[3]; Table 3 (Example 1),293 µM
same,IC50,[4]; Table 3 (Example 1),325 µM
NC[C@H]1O[C@H](O[C@H]2[C@H](O[C@@H]3O[C@H](CN)[C@@H](O)[C@H]3O)[C@@H](O)[C@H](N)C[C@@H]2N)[C@H](N)[C@@H](O)[C@@H]1O [Compound 048],MIC WT,"E coli wild type; WT, Table 3 (Example 1)",2 to 4 µg/mL
same,MIC APH(3)-VI,[1],64 µg/mL
same,MIC APH(3′)-I,[1],>64 µg/mL
same,MIC APH(3′)-II,[1],>64 µg/mL
same,MIC APH(3′)-III,[1],>64 µg/mL
same,IC50,[2]; Table 3 (Example 1),0.09 µM
same,IC50,[4]; Table 3 (Example 1),76 µM
"CC1CC(O)C2O[C@H](O[C@@H]3C(N)C[C@@H](N)C(O)[C@H]3O[C@@H]3O[C@H](CO)[C@H](O[C@H]4O[C@@H](CN)[C@@H](O)C(O)C4N)C3O)C(N)[C@@H](O)[C@@H]2O1 (stereo partly drawn) [Compound 109, 4-O-(2′-Amino-4′,8′-anhydro-2′,7′,9′-trideoxy-D-erythro-α-D-gluco-nonapyranosyl)-5-O-[3-O-(2,6-diamino-2,6-dideoxy-β-L-idopyranosyl)-β-D-ribofuranosyl]-2-deoxystreptamine.5AcOH]",MIC50,"MRSA; Staphylococcus aureus, MRSA, strain AG42, read-out: MIC50 MRSA AG42",16 to 32 µg/mL
same,MIC50 MRSA AG38,MRSA; strain AG38,32 µg/mL
same,MIC50 MRSA AG39,MRSA; strain AG39,32 to 64 µg/mL
same,MIC50 MRSA AG44,MRSA; strain AG44,32 µg/mL
same,MIC50 E coli BM13 (AG06) wt,"E coli wild type; BM13 (AG06) wt, Table 2A (Example 2)",16 to 32 µg/mL
same,MIC WT,"E coli wild type; WT, Table 3 (Example 2)",16 to 32 µg/mL
same,MIC50 E coli pH430 WT,"E coli wild type; pH430 WT, Table 2B (Example 2)",16-32 μg/ml
same,MIC50 E coli AG01,"E coli wild type; strain AG01, Table 1 (Example 2)",128 µg/mL
same,MIC50 E coli AG03,"E coli wild type; strain AG03, Table 1 (Example 2)",64 to 128 µg/mL
same,MIC50 E coli AG55,"E coli wild type; strain AG55, Table 1 (Example 2)",64 to 128 µg/mL
same,MIC50,"P aeruginosa; strain AG33, read-out: MIC50 P aeruginosa AG33",> 128 µg/mL
same,MIC50,"P aeruginosa; strain AG86, read-out: MIC50 P aeruginosa AG86",> 128 µg/mL
same,MIC50 P aeruginosa AG31,P aeruginosa; strain AG31,>128 µg/mL
same,MIC50 P aeruginosa AG32,P aeruginosa; strain AG32,>128 µg/mL
same,IC50,[2]; Table 3 (Example 2),0.47 µM
same,IC50,[3]; Table 3 (Example 2),169 µM
same,IC50,[4]; Table 3 (Example 2),193 µM
same,MIC SZ380 M. smegmatis,M. smegmatis SZ380; strain SZ380 Mycobacterium smegmatis,16 µg/mL
"CC(=O)O.NCC1OC(OC2C(CO)OC(OC3C(O)C(N)CC(N)C3OC3OC(CO)C(O)C(O)C3O)C2O)C(N)C(O)C1O (stereo not drawn) [Compound 118, 2′-Deamino-2′-hydroxy-paromomycin acetate salt]",MIC E. coli WT,"E coli wild type; WT, Table 5 (Example 3)",32 µg/mL
same,MIC M. smegmatis SZ380 WT,"M. smegmatis SZ380; SZ380 WT, Table 5 (Example 3)",>128 µg/mL
CC(=O)NC[C@H]1O[C@@H](O[C@@H]2C(O)[C@H](N)CC(N)[C@H]2O[C@H]2OC(CN)[C@@H](O)[C@H](O)C2N)C(O)[C@H]1O (stereo partly drawn) [Compound 129],MIC,E coli wild type; [5],64 µg/mL
same,MIC,E coli wild type; [6],32 µg/mL
same,MIC,[1]; [7],> 64 µg/mL
NCC1OC(OC2C(N)CC(N)C(O)C2OC2OC(CNC=O)C(O)C2O)C(N)C(O)C1O (stereo not drawn) [Compound 130],MIC,"E coli wild type; WT, Table 3 (Example 1), read-out: MIC WT",4 µg/mL
same,MIC,E coli wild type; [5],16 µg/mL
same,MIC,E coli wild type; [6],4 µg/mL
same,MIC,[1]; [7],> 128 µg/mL
same,MIC,[1]; read-out: MIC AG163 E. coli APH(3′)-I,> 128 µg/mL
same,MIC,[1]; read-out: MIC AG166 E. coli APH(3′)-II,> 128 µg/mL
same,MIC,[1]; read-out: MIC APH(3)-VI,> 64 µg/mL
same,MIC,[1]; read-out: MIC APH(3′)-I,> 64 µg/mL
same,MIC,[1]; read-out: MIC APH(3′)-II,> 64 µg/mL
same,MIC,[1]; read-out: MIC APH(3′)-III,> 64 µg/mL
same,MIC,[1]; read-out: MIC pH421 E. coli APH(3′)-I,> 64 µg/mL
same,MIC,[1]; read-out: MIC pH422 E. coli APH(3′)-II,> 64 µg/mL
same,MIC,[1]; read-out: MIC pH423 E. coli APH(3′)-VI,> 64 µg/mL
same,IC50,[2]; Table 3 (Example 1),0.24 µM
same,IC50,[3]; Table 3 (Example 1),359 µM
same,IC50,[4]; Table 3 (Example 1),364 µM
NC[C@@H]1O[C@H](O[C@H]2[C@@H](O)[C@H](O[C@@H]3[C@@H](O)[C@H](N)C[C@H](N)[C@H]3O[C@H]3O[C@H](CN)[C@@H](O)C[C@H]3N)O[C@@H]2CO)[C@H](N)[C@@H](O)[C@@H]1O [Compound 140],MIC WT,"E coli wild type; WT, Table 3 (Example 1)",1 µg/mL
same,MIC AG160 E. coli WT,"E coli wild type; clinical isolate AG160 WT, Table 2 (Example 4)",1 µg/mL
same,MIC pH430 E. coli WT,"E coli wild type; engineered strain pH430 WT, Table 2 (Example 4)",1 μg/ml
same,MIC APH(3)-VI,[1],1 µg/mL
same,MIC APH(3′)-I,[1],>32 µg/mL
same,MIC APH(3′)-II,[1],1 µg/mL
same,MIC APH(3′)-III,[1],32 µg/mL
same,MIC AG163 E. coli APH(3′)-I,"[1]; clinical isolate AG163 APH(3′)-I, Table 2 (Example 4)",64 µg/mL
same,MIC AG166 E. coli APH(3′)-II,"[1]; clinical isolate AG166 APH(3′)-II, Table 2 (Example 4)",1 µg/mL
same,MIC AG037 E. coli APH(3′)-III,"[1]; engineered strain AG037 APH(3′)-III, Table 2 (Example 4)",32 µg/mL
same,MIC pH421 E. coli APH(3′)-I,"[1]; engineered strain pH421 APH(3′)-I, Table 2 (Example 4)",>32 μg/ml
same,MIC pH422 E. coli APH(3′)-II,"[1]; engineered strain pH422 APH(3′)-II, Table 2 (Example 4)",1 μg/ml
same,MIC pH423 E. coli APH(3′)-VI,"[1]; engineered strain pH423 APH(3′)-VI, Table 2 (Example 4)",1 μg/ml
same,IC50,[2]; Table 3 (Example 1),0.04 µM
same,IC50,[3]; Table 3 (Example 1),66 µM
same,IC50,[4]; Table 3 (Example 1),4.6 µM
NCC1O[C@H](O[C@@H]2C(O)[C@H](O[C@@H]3C(O)[C@H](N)CC(N)[C@H]3O[C@H]3OC4C(O)CO[C@H]4[C@H](O)C3N)O[C@@H]2CO)C(N)[C@H](O)[C@@H]1O (stereo partly drawn) [Compound 203],MIC,E coli wild type; [8],32 µg/mL
CC[C@@H]1C(CO)O[C@H](O[C@@H]2C(N)C[C@@H](N)C(O)[C@H]2O[C@@H]2O[C@H](CO)[C@H](O[C@H]3OC(CN)[C@@H](O)C(O)C3N)C2O)[C@@H](N)C1O (stereo partly drawn) [Compound 206],MIC,E coli wild type; [8],8 µg/mL
NC[C@@H]1O[C@H](O[C@@H]2C(O)[C@H](O[C@@H]3C(O)[C@H](N)CC(N)[C@H]3O[C@H]3OC4C(O)CCO[C@H]4[C@H](O)C3N)O[C@@H]2CO)C(N)C(O)[C@@H]1O (stereo partly drawn) [Compound 211],MIC,E coli wild type; [8],32 to 64 µg/mL
NC[C@@H]1O[C@H](O[C@@H]2C(O)[C@H](O[C@@H]3C(O)[C@H](N)CC(N)[C@H]3O[C@H]3OC4C(O)CCCO[C@H]4[C@H](O)C3N)O[C@@H]2CO)C(N)C(O)[C@@H]1O (stereo partly drawn) [DC-196],MIC,E coli wild type; [9],4 µg/mL
same,MIC,[1]; read-out: MIC AAC(6′),4 µg/mL
same,MIC,[1]; read-out: MIC ANT(4′),2 µg/mL
same,MIC,[1]; read-out: MIC APH(3′)-II,16 µg/mL
same,MIC,[1]; read-out: MIC APH(3′)-VI,16 µg/mL
same,IC50,[3]; Table 3 (Example 2),200 µM
same,IC50,[4]; Table 3 (Example 2),0.14 µM
NCC1O[C@H](O[C@@H]2C(O)[C@H](O[C@@H]3C(O)[C@H](N)CC(N)[C@H]3O[C@H]3OC4C(O)CO[C@H]4[C@H](O)C3N)O[C@@H]2CO)C(N)[C@H](O)[C@@H]1O (stereo partly drawn) [DC-204],MIC,E coli wild type; [9],8 µg/mL
same,MIC,[1]; read-out: MIC AAC(6′),16 µg/mL
same,MIC,[1]; read-out: MIC ANT(4′),4 to 8 µg/mL
same,MIC,[1]; read-out: MIC APH(3′)-II,16 to 32 µg/mL
same,MIC,[1]; read-out: MIC APH(3′)-VI,16 µg/mL
same,IC50,[3]; Table 3 (Example 2),131 µM
same,IC50,[4]; Table 3 (Example 2),0.2 µM

# Reference: patent US11466044B2 (WAYNE STATE UNIVERSITY, priority 2017, dated 2022)
